Assay results taken from patent publication US20250262201A1, “COMPOUNDS AND METHODS USEFUL FOR STABILIZING PHENYLALANINE HYDROXYLASE MUTATIONS” (Agios Pharmaceuticals, Inc., priority 2022, published 2025).

Target: T1, human PAH with the R408W mutation (Homo sapiens, UniProt P00439, R408W)
T1 construct: expressed in transfected cells
T1 sequence (P00439 1-452 R408W): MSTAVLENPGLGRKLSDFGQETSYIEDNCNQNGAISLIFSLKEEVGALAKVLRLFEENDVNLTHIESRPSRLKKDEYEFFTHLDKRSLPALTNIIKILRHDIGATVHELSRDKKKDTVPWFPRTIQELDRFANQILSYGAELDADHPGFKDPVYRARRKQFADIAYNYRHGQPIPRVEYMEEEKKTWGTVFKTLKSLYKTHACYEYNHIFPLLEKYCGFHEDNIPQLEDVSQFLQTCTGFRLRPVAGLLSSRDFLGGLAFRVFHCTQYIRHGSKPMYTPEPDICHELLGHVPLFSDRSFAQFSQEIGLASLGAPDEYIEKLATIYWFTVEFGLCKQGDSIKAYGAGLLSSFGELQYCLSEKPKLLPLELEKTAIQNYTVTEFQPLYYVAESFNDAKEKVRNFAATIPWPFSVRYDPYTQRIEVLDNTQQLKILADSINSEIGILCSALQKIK
Assay: Cell Based Phenylalanine Flux Assay
Details: A375 cells expressing human R408W PAH; 24 hrs compound incubation; 13C-Tyrosine by LC-MS; average where tested multiple times; read-out: AC50
Method: Compounds were resuspended in DMSO, and 2-fold serial dilutions were performed to generate a 10-point dose curve. Compounds were added to plated cells in a total volume of 100 pal, and a final DMSO concentration of 0.5%. Each compound was tested in duplicate. Following compound addition, cells were placed in a 5% CO2, 37° C. tissue culture incubator for 24 hrs. After the incubation period, 20 μM sepiapterin and 800 μM 13C9,15N-Phenylalanine were added. After 4 hours, cell media was removed. An aliquot of 10 μl of cell media was combined with 200 μl of extraction buffer (80% acetonitrile/20% H2O) for each well. Determination of ^13C-Tyrosine concentration was assessed by liquid chromatography mass spectrometry.

| SMILES | AC50 |
| --- | --- |
| O=C(c1oc(-c2ccc(C(F)(F)F)cn2)nc1C(F)F)N1CCc2[nH]cnc2[C@H]1c1ncc2ccccc2n1 [Example 278, (S)-(4-(difluoromethyl)-2-(5-(trifluoromethyl)pyridin-2-yl)oxazol-5-yl)(4-(quinazolin-2-yl)-6,7-dihydro-1H-imidazo[4,5-c]pyridin-5(4H)-yl)methanone] | < 500 nM |
| O=C(c1oc(N2CCC(F)CC2)nc1C(F)F)N1CCc2[nH]cnc2[C@H]1c1ncc2ccccc2n1 [Example 280, (S)-(4-(difluoromethyl)-2-(4-fluoropiperidin-1-yl)oxazol-5-yl)(4-(quinazolin-2-yl)-6,7-dihydro-1H-imidazo[4,5-c]pyridin-5(4H)-yl)methanone] | < 500 nM |
| Cn1cncc1-c1nc(C(F)F)c(C(=O)N2CCc3[nH]cnc3[C@@H]2c2ncc3ccccc3n2)o1 [Example 281, (R)-(4-(difluoromethyl)-2-(1-methyl-1H-imidazol-5-yl)oxazol-5-yl)(4-(quinazolin-2-yl)-6,7-dihydro-1H-imidazo[4,5-c]pyridin-5(4H)-yl)methanone] | 500 to 1000 nM |
| O=C(c1cnco1)N1CCc2[nH]cnc2[C@H]1c1ccc2ccccc2c1 [Example 283, (R)-(4-(naphthalen-2-yl)-6,7-dihydro-1H-imidazo[4,5-c]pyridin-5(4H)-yl)(oxazol-5-yl)methanone] | 500 to 1000 nM |
| O=C(c1cnc(-c2ccccn2)s1)N1CCc2[nH]cnc2[C@H]1c1cc2ccccc2cn1 [Example 300, (R)-(4-(isoquinolin-3-yl)-6,7-dihydro-1H-imidazo[4,5-c]pyridin-5(4H)-yl)(2-(pyridin-2-yl)thiazol-5-yl)methanone] | < 500 nM |
| O=C(c1cnc(-c2ccccn2)s1)N1CCc2[nH]cnc2[C@@H]1c1cc2ccccc2cn1 [Example 301, (S)-(4-(isoquinolin-3-yl)-6,7-dihydro-1H-imidazo[4,5-c]pyridin-5(4H)-yl)(2-(pyridin-2-yl)thiazol-5-yl)methanone] | > 5000 nM |
| Cn1cc(-c2ncc(C(=O)N3CCc4[nH]cnc4[C@H]3c3cc4ccccc4cn3)s2)cn1 [Example 302, (R)-(4-(isoquinolin-3-yl)-6,7-dihydro-1H-imidazo[4,5-c]pyridin-5(4H)-yl)(2-(1-methyl-1H-pyrazol-4-yl)thiazol-5-yl)methanone] | < 500 nM |
| Cn1cc(-c2ncc(C(=O)N3CCc4[nH]cnc4[C@@H]3c3cc4ccccc4cn3)s2)cn1 [Example 303, (S)-(4-(isoquinolin-3-yl)-6,7-dihydro-1H-imidazo[4,5-c]pyridin-5(4H)-yl)(2-(1-methyl-1H-pyrazol-4-yl)thiazol-5-yl)methanone] | > 5000 nM |
| O=C(c1cnc(-c2cnn(CC(F)(F)F)c2)o1)N1CCc2[nH]cnc2[C@@H]1c1cc2ccccc2cn1 [Example 304, (S)-(4-(isoquinolin-3-yl)-6,7-dihydro-1H-imidazo[4,5-c]pyridin-5(4H)-yl)(2-(1-(2,2,2-trifluoroethyl)-1H-pyrazol-4-yl)oxazol-5-yl)methanone] | > 5000 nM |
| O=C(c1cnc(-c2cnn(CC(F)(F)F)c2)o1)N1CCc2[nH]cnc2[C@H]1c1cc2ccccc2cn1 [Example 305, (R)-(4-(isoquinolin-3-yl)-6,7-dihydro-1H-imidazo[4,5-c]pyridin-5(4H)-yl)(2-(1-(2,2,2-trifluoroethyl)-1H-pyrazol-4-yl)oxazol-5-yl)methanone] | < 500 nM |
| O=C(c1cnc(-c2cnn(CC(F)(F)F)c2)s1)N1CCc2[nH]cnc2[C@H]1c1cc2ccccc2cn1 [Example 306, (R)-(4-(isoquinolin-3-yl)-6,7-dihydro-1H-imidazo[4,5-c]pyridin-5(4H)-yl)(2-(1-(2,2,2-trifluoroethyl)-1H-pyrazol-4-yl)thiazol-5-yl)methanone] | 500 to 1000 nM |
| O=C(c1cnc(-c2cnn(CC(F)(F)F)c2)s1)N1CCc2[nH]cnc2[C@@H]1c1cc2ccccc2cn1 [Example 307, (S)-(4-(isoquinolin-3-yl)-6,7-dihydro-1H-imidazo[4,5-c]pyridin-5(4H)-yl)(2-(1-(2,2,2-trifluoroethyl)-1H-pyrazol-4-yl)thiazol-5-yl)methanone] | > 5000 nM |
| O=C(c1cnc(-c2ccccn2)o1)N1CCc2[nH]cnc2[C@H]1c1cc2ccccc2cn1 [Example 308, (R)-(4-(isoquinolin-3-yl)-6,7-dihydro-1H-imidazo[4,5-c]pyridin-5(4H)-yl)(2-(pyridin-2-yl)oxazol-5-yl)methanone] | < 500 nM |
| O=C(c1cnc(-c2ccccn2)o1)N1CCc2[nH]cnc2[C@@H]1c1cc2ccccc2cn1 [Example 309, (S)-(4-(isoquinolin-3-yl)-6,7-dihydro-1H-imidazo[4,5-c]pyridin-5(4H)-yl)(2-(pyridin-2-yl)oxazol-5-yl)methanone] | > 5000 nM |
| Cn1cc(-c2ncc(C(=O)N3CCc4[nH]cnc4[C@H]3c3cc4ccccc4cn3)o2)cn1 [Example 311, (R)-(4-(isoquinolin-3-yl)-6,7-dihydro-1H-imidazo[4,5-c]pyridin-5(4H)-yl)(2-(1-methyl-1H-pyrazol-4-yl)oxazol-5-yl)methanone] | < 500 nM |
| O=C(c1cnc(-c2ccc(F)cn2)s1)N1CCc2[nH]cnc2[C@@H]1c1cc2ccccc2cn1 [Example 313, (S)-(2-(5-fluoropyridin-2-yl)thiazol-5-yl)(4-(isoquinolin-3-yl)-6,7-dihydro-1H-imidazo[4,5-c]pyridin-5(4H)-yl)methanone] | 1000 to 5000 nM |
| COCc1ccc2c(C(=O)N3CCc4[nH]cnc4[C@H]3c3cc4ccccc4cn3)cnn2c1 [Example 314, (R)-(4-(isoquinolin-3-yl)-6,7-dihydro-1H-imidazo[4,5-c]pyridin-5(4H)-yl)(6-(methoxymethyl)pyrazolo[1,5-a]pyridin-3-yl)methanone] | < 500 nM |
| COCc1ccc2c(C(=O)N3CCc4[nH]cnc4[C@@H]3c3cc4ccccc4cn3)cnn2c1 [Example 315, (S)-(4-(isoquinolin-3-yl)-6,7-dihydro-1H-imidazo[4,5-c]pyridin-5(4H)-yl)(6-(methoxymethyl)pyrazolo[1,5-a]pyridin-3-yl)methanone] | > 5000 nM |
| CC(C)(C)c1ncc(C(=O)N2CCc3[nH]cnc3[C@H]2c2cc3ccccc3cn2)s1 [Example 316, (R)-(2-(tert-butyl)thiazol-5-yl)(4-(isoquinolin-3-yl)-6,7-dihydro-1H-imidazo[4,5-c]pyridin-5(4H)-yl)methanone] | < 500 nM |
| CC(C)(C)c1ncc(C(=O)N2CCc3[nH]cnc3[C@@H]2c2cc3ccccc3cn2)s1 [Example 317, (S)-(2-(tert-butyl)thiazol-5-yl)(4-(isoquinolin-3-yl)-6,7-dihydro-1H-imidazo[4,5-c]pyridin-5(4H)-yl)methanone] | > 5000 nM |
| Cc1nnc(C(=O)N2CCc3[nH]cnc3[C@H]2c2cc3ccccc3cn2)o1 [Example 318, (R)-(4-(isoquinolin-3-yl)-6,7-dihydro-1H-imidazo[4,5-c]pyridin-5(4H)-yl)(5-methyl-1,3,4-oxadiazol-2-yl)methanone] | < 500 nM |
| Cc1nnc(C(=O)N2CCc3[nH]cnc3[C@@H]2c2cc3ccccc3cn2)o1 [Example 319, (S)-(4-(isoquinolin-3-yl)-6,7-dihydro-1H-imidazo[4,5-c]pyridin-5(4H)-yl)(5-methyl-1,3,4-oxadiazol-2-yl)methanone] | > 5000 nM |
| O=C(c1cnco1)N1CCc2[nH]cnc2[C@H]1c1cc2ccccc2cn1 [Example 320, (R)-(4-(isoquinolin-3-yl)-6,7-dihydro-1H-imidazo[4,5-c]pyridin-5(4H)-yl)(oxazol-5-yl)methanone] | < 500 nM |
| O=C(c1cnco1)N1CCc2[nH]cnc2[C@@H]1c1cc2ccccc2cn1 [Example 321, (S)-(4-(isoquinolin-3-yl)-6,7-dihydro-1H-imidazo[4,5-c]pyridin-5(4H)-yl)(oxazol-5-yl)methanone] | 1000 to 5000 nM |
| Cn1cc(-c2nnc(C(=O)N3CCc4[nH]cnc4[C@H]3c3cc4ccccc4cn3)o2)cn1 [Example 322, (R)-(4-(isoquinolin-3-yl)-6,7-dihydro-1H-imidazo[4,5-c]pyridin-5(4H)-yl)(5-(1-methyl-1H-pyrazol-4-yl)-1,3,4-oxadiazol-2-yl)methanone] | < 500 nM |
| Cn1cc(-c2nnc(C(=O)N3CCc4[nH]cnc4[C@@H]3c3cc4ccccc4cn3)o2)cn1 [Example 323, (S)-(4-(isoquinolin-3-yl)-6,7-dihydro-1H-imidazo[4,5-c]pyridin-5(4H)-yl)(5-(1-methyl-1H-pyrazol-4-yl)-1,3,4-oxadiazol-2-yl)methanone] | > 5000 nM |
| O=C(c1nnc(-c2ccccn2)o1)N1CCc2[nH]cnc2[C@H]1c1cc2ccccc2cn1 [Example 324, (R)-(4-(isoquinolin-3-yl)-6,7-dihydro-1H-imidazo[4,5-c]pyridin-5(4H)-yl)(5-(pyridin-2-yl)-1,3,4-oxadiazol-2-yl)methanone] | < 500 nM |
| O=C(c1nnc(-c2ccccn2)o1)N1CCc2[nH]cnc2[C@@H]1c1cc2ccccc2cn1 [Example 325, (S)-(4-(isoquinolin-3-yl)-6,7-dihydro-1H-imidazo[4,5-c]pyridin-5(4H)-yl)(5-(pyridin-2-yl)-1,3,4-oxadiazol-2-yl)methanone] | > 5000 nM |
| O=C(c1nnc(C2CC2)o1)N1CCc2[nH]cnc2[C@H]1c1cc2ccccc2cn1 [Example 326, (R)-(5-cyclopropyl-1,3,4-oxadiazol-2-yl)(4-(isoquinolin-3-yl)-6,7-dihydro-1H-imidazo[4,5-c]pyridin-5(4H)-yl)methanone] | < 500 nM |
